Test results taken from patent publication US20180250309A1, “METHODS FOR TREATMENT OF MONOCYTE DYSFUNCTION AND CHRONIC INFLAMMATORY MICRO AND MACRO-VASCULAR DISEASES” (THE BOARD OF REGENTS OF THE UNIVERSITY OF TEXAS SYSTEM, priority 2015, published 2018).
Where two headings read alike, the source gives them in different places.

Experiments:
diabetic atherosclerosis = experiment: Dietary supplementation in diabetic mice: monocyte dysfunction, macrophage recruitment, atherosclerosis; type: in vivo
THP-1 monocytes = experiment: Monocyte chemotaxis of metabolically primed THP-1 monocytes towards MCP-1 (modified Boyden chamber); type: cell-based, Human; settings: for monocyte chemotaxis: primed with glucose and LDL, 1 nM MCP-1, FIG. 2; for normal or baseline responses to chemokines: unprimed, non-pathogenic chemotaxis
Method: (§1) Chemotaxis assays are performed using 48-well, modified Boyden chambers (NeuroProbe, Gaithersburg, Md.) as described previously (1). Briefly, monocytes are primed with glucose and LDL in the presence of UA, 23-OHUA or vehicle (0.1% DMSO). Cells are loaded into upper wells of the chemotaxis chamber. Lower wells contain cell media with 1 nM MCP-1 (R&D Systems, Minneapolic, Minn.) or vehicle. A 5 μm polyvinyl pyrrolidone-free polycarbonate filter membrane is layered between the upper and lower chambers, and the chamber is incubated for 1.5 h for THP-1 monocytes at 37° C. and 5% CO2. The membrane is washed and cells removed from the upper side of the filter and fixed with methanol. Transmigrated are stained with 1 μM propidium iodide. Fluorescence intensity, which correlates with cell number is quantified with KODAK Image Station 4000MM (Carestream, Rochester, N.Y.).
Cell Culture/Priming. Human monocytic THP-1 cells (ATCC) were cultured in THP-1 medium (RPMI 1640, 5 mM glucose, 10% fetal bovine serum (FBS), 2% glutamax, 1% penicillin/streptomycin, 1% HEPES, 0.1% β-mercaptoethanol). Cells are spun down at 400 g, 5 minutes at 25° C. and resuspended in media at […]. Following 48 hours at 37° C. and 5% CO2, cells are plated in 12-well cell culture plates. Phytochemicals are solubilized in dimethylsulfoxide (DMSO) and are added to suspended THP-1 cells at concentrations from 0.03 μM to 3 μM. Control cells without phytonutrients are treated with 0.1% DMSO. Cytotoxicity was assessed with a trypan exclusion assay. To induce a metabolically stressed condition (priming), cells were treated with freshly isolated human LDL is added (100 μg/ml) along with D-glucose (20 mM) for 24 hours.
as §1, with “Chemotaxis. Chemotaxis” for “Chemotaxis”, “(Ullevig et al. Redox Biology. 2014 01/03;2:259-66).” for “(1).”, “islayered” for “is layered”

Nox4 = experiment: Induction of Nox4 in monocytes under metabolic stress; type: cell-based
Source text: The inventor has elucidated the mechanism through which hypercholesterolemia and hyperglycemia promote monocyte dysfunction. Monocyte dysfunction is induced by metabolic disorders via the pathological induction of Nox4.

[1] = Solubility / hydrophilicity relative to ursolic acid; type: physicochemical

| hydrophilicity relative to UA [1] | solubility compared with ursolic acid [1] | SMILES | atherosclerosis (diabetic atherosclerosis) | monocyte dysfunction and macrophage recruitment (diabetic atherosclerosis) | atherosclerosis (diabetic atherosclerosis; listed as ursolic acid) | monocyte priming by metabolic stress (hypersensitization to chemokine-induced activation) (THP-1 monocytes) | monocyte chemotaxis (THP-1 monocytes) | normal or baseline responses to chemokines (THP-1 monocytes) | induction of Nox4 (Nox4) | monocyte dysfunction (Nox4) |
| --- | --- | --- | --- | --- | --- | --- | --- | --- | --- | --- |
|  |  | C[C@H]1[C@H](C)CC[C@]2(C(=O)O)CC[C@]3(C)C(=CC[C@@H]4[C@@]5(C)CC[C@H](O)C(C)(C)[C@@H]5CC[C@]43C)[C@H]12 [UA, Ursolic acid] | potent inhibitor of diabetic atherosclerosis | attenuates monocyte dysfunction and macrophage recruitment | protects diabetic mice from atherosclerosis | inhibit | reducing monocyte chemotaxis | do not block or affect normal or baseline responses to chemokines | prevent the induction of Nox4 |  |
| more hydrophilic | more soluble | CC1CCC2(C(=O)O)CCC3(C)C(=CCC4C5(C)CCC(O)C(C)(CO)C5CCC43C)C2C1C (stereo not drawn) [23-OH UA, 3β, 23-dihydroxyurs-12-en-28oic acid] |  |  |  | inhibit | reducing monocyte chemotaxis | do not block or affect normal or baseline responses to chemokines | prevents the induction of Nox4 | prevents |
